Source: BindingDB's records for doi:10.1021/jm990587w (Alcon Laboratories, 2000)

Biological target: Prostaglandin F2-alpha receptor (Bos taurus)
Test: Inhibitory Binding constant (n=2) to Prostanoid FP receptor expressed in bovine corpus luteum

Row | SMILES | Ki
1 | O=C(O)CCC/C=C\C[C@@H]1[C@@H](/C=C/[C@H](O)COc2cccc(Cl)c2)[C@H](O)CC[C@@H]1O [7-{2-[4-(3-Chloro-phenoxy)-3-hydroxy-but-1-enyl]-3,6-dihydroxy-cyclohexyl}-hept-5-enoic acid] | 56 µM
2 | O=C(O)CCC/C=C\C[C@@H]1[C@@H](/C=C/[C@@H](O)COc2cccc(Cl)c2)[C@H](O)CC[C@@H]1O [7-{2-[4-(3-Chloro-phenoxy)-3-hydroxy-but-1-enyl]-3,6-dihydroxy-cyclohexyl}-hept-5-enoic acid] | 1.9 µM
